Experimental data taken from patent publication US8580824B2, “Pyridin-4-yl derivatives as immunomodulating agents” (Actelion Pharmaceuticals Ltd., priority 2006, dated 2013).

molecular target: recombinant human S1P1 receptor (Homo sapiens, UniProt P21453); assay: GTPγS assay to determine EC50 values; assay type: biochemical; conditions: agonistic activity; membrane preparations of CHO cells expressing recombinant human S1P1 receptor; 35S-GTPγS binding
Description: i) GTPγS assay to determine EC50 values
GTPγS binding assays are performed in 96 well microtiter plates (Nunc, 442587) in a final volume of 200 μl, using membrane preparations of CHO cells expressing recombinant human S1P1 receptor. Assay conditions are 20 mM Hepes (Fluka, 54461), 100 mM NaCl (Fluka, 71378), 5 mM MgCl2 (Fluka, 63064), 0.1% BSA (Calbiochem, 126609), 1 μM GDP (Sigma, G-7127), 2.5% DMSO (Fluka, 41644), 50 pM ^35S-GTPγS (Amersham Biosciences, SJ1320). The pH is 7.4. Test compounds are dissolved and diluted in 100% DMSO and pre-incubated at room temperature for 30 min in 150 μl of the above assay buffer, in the absence of ^35S-GTPγS. After addition of 50 μl of ^35S-GTPγS, the assay is incubated for 1 h at rt. The assay is terminated by transfer of the reaction mixture to a Multiscreen plate (Millipore, MAHFC1H60) using a cell harvester from Packard Biosciences, and the plates are washed with ice-cold 10 mM Na2HPO4/NaH2PO4 (70%/30%), dried, sealed at the bottom and, after addition of 25 μl MicroScint20 (Packard Biosciences, order#6013621), sealed on the top. Membrane-bound ^35S-GTPγS is measured with a TopCount from Packard Biosciences.
EC50 is the concentration of agonist inducing 50% of the maximal specific ^35S-GTPγS binding. Specific binding is determined by subtracting non-specific binding from maximal binding. Maximal binding is the amount of cpm bound to the Multiscreen plate in the presence of 10 μM of S1P. Non-specific binding is the amount of binding in the absence of an agonist in the assay.

recombinant human S1P1 receptor, sequence (P21453 whole entry): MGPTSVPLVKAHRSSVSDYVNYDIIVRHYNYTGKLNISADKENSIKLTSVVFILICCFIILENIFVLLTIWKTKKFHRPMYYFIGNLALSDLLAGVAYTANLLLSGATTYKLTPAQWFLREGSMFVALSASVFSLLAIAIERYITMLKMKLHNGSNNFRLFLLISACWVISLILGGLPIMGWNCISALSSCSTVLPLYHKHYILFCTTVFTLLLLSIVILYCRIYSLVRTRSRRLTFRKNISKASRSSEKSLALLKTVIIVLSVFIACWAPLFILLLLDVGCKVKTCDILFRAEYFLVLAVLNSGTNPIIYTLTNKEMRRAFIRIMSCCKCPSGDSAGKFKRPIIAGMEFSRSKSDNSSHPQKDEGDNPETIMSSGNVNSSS

Question: How did the EC50 turn out when Cc1cc(-c2noc(-c3cc(Cl)nc(CC(C)C)c3)n2)cc(C)c1OCC(O)CO (racemic) [Example 4, (RS)-3-{4-[5-(2-Chloro-6-isobutyl-pyridin-4-yl)-[1,2,4]oxadiazol-3-yl]-2,6-dimethyl-phenoxy}-propane-1,2-diol] was run?
Answer: 0.7 nM

Question: For Cc1cc(-c2nc(-c3cc(C)c(OCC(O)CNC(=O)CO)c(C)c3)no2)cc(CC(C)C)n1 (racemic) [Example 11, 2-Hydroxy-N-((RS)-2-hydroxy-3-{4-[5-(2-isobutyl-6-methyl-pyridin-4-yl)-[1,2,4]oxadiazol-3-yl]-2,6-dimethyl-phenoxy}-propyl)-acetamide], which EC50 is on record?
Answer: 0.2 nM

Question: Cc1cc(-c2noc(-c3cc(Cl)nc(OC(C)C)c3)n2)cc(C)c1OCC(O)CNC(=O)CO (racemic) [Example 26, N-((RS)-3-{4-[5-(2-Chloro-6-isopropoxy-pyridin-4-yl)-[1,2,4]oxadiazol-3-yl]-2,6-dimethyl-phenoxy}-2-hydroxy-propyl)-2-hydroxy-acetamide] was tested. Which EC50 did it give?
Answer: 0.4 nM

Question: With CCOc1cc(-c2nc(-c3cc(C)c(OCC(O)CO)c(C)c3)no2)cc(C)n1 (racemic) [Example 27, (RS)-3-{4-[5-(2-Ethoxy-6-methyl-pyridin-4-yl)-[1,2,4]oxadiazol-3-yl]-2,6-dimethyl-phenoxy}-propane-1,2-diol] as the compound, how does the EC50 read?
Answer: 2.5 nM

Question: With CCc1cc(-c2nc(-c3cc(C)c(OC[C@H](O)CNC(=O)CO)c(Cl)c3)no2)cc(C)n1 [Example 60] as the compound, how does the EC50 read?
Answer: 0.5 nM

Question: Which EC50 does the source give for CCc1cc(-c2noc(-c3cc(C)c(OC[C@@H](O)CNC(=O)CO)c(CC)c3)n2)cc(C)n1 [Example 74] here?
Answer: 4.3 nM

Question: CCCc1cc(-c2nc(-c3cc(C)c(O)c(CC)c3)no2)cc(C)n1 [Example 86] was tested. Which EC50 did it give?
Answer: 5.6 nM

Question: How did the EC50 turn out when CCCc1cc(-c2nc(-c3cc(C)c(OCC(O)CNC(=O)CO)c(C)c3)no2)cc(C)n1 (centres unmarked) [Example 95] was run?
Answer: 0.4 nM

Question: Which EC50 does the source give for CCCc1cc(-c2nnc(-c3cc(C)c(OC[C@@H](O)CNC(=O)CO)c(C)c3)o2)cc(C)n1 [Example 111] here?
Answer: 1.8 nM

Question: How did the EC50 turn out when CCCc1cc(-c2noc(-c3cc(C)nc(C(C)C)c3)n2)cc(C)c1OC[C@@H](O)CNC(=O)CO [Example 123] was run?
Answer: 0.4 nM

Question: With Cc1cc(-c2nc(-c3cc(C)c(OCC(O)CNC(=O)CO)c(Cl)c3)no2)cc(CC(C)C)n1 (centres unmarked) [Example 145] as the compound, how does the EC50 read?
Answer: 0.2 nM

Question: How did the EC50 turn out when COc1cc(-c2noc(-c3cc(C)nc(CC(C)C)c3)n2)cc(Cl)c1OC[C@H](O)CNC(=O)CO [Example 160] was run?
Answer: 0.7 nM

Question: With CCc1cc(-c2nnc(-c3cc(C)nc(CC(C)C)c3)o2)cc(C)c1OC[C@@H](O)CNC(=O)CO [Example 180] as the compound, how does the EC50 read?
Answer: 0.8 nM

Question: With CCc1cc(-c2noc(-c3cc(C)nc(C(CC)CC)c3)n2)cc(C)c1OC[C@@H](O)CO [Example 196] as the compound, how does the EC50 read?
Answer: 0.6 nM

Question: CCc1cc(-c2noc(-c3cc(CC(C)C)nc(OC)c3)n2)cc(C)c1OC[C@@H](O)CNC(=O)CO [Example 226] was tested. Which EC50 did it give?
Answer: 0.9 nM

Question: Which EC50 does the source give for CCc1cc(-c2ncc(-c3cc(C)nc(CC(C)C)c3)o2)cc(C)c1OC[C@@H](O)CO [Example 235, (S)-3-{2-Ethyl-4-[5-(2-isobutyl-6-methyl-pyridin-4-yl)-oxazol-2-yl]-6-methyl-phenoxy}-propane-1,2-diol] here?
Answer: 5.8 nM

system: circulating lymphocytes in normotensive male Wistar rats; assay: Assessment of in vivo efficacy: circulating lymphocytes after oral administration; design: species or system rat; conditions: 6 h after oral administration of 10 mg/kg to normotensive male Wistar rats, compared to vehicle-treated group
Description: The efficacy of the compounds of Formula (I) is assessed by measuring the circulating lymphocytes after oral administration of 3 to 30 mg/kg of a compound of Formula (I) to normotensive male Wistar rats. The animals are housed in climate-controlled conditions with a 12 h-light/dark cycle, and have free access to normal rat chow and drinking water. Blood is collected before and 3, 6 and 24 h after drug administration. Full blood is subjected to hematology using Advia Hematology system (Bayer Diagnostics, Zurich, Switzerland).
All data are presented as mean±SEM. Statistical analyses are performed by analysis of variance (ANOVA) using Statistica (StatSoft) and the Student-Newman-Keuls procedure for multiple comparisons. The null hypothesis is rejected when p<0.05.
Lymphocyte counts 6 h after oral administration have been measured for 51 from 244 exemplified compounds (one being dosed at 3 mg/kg) and are in the range of −78% to −53% with an average of −67%.

Question: For CCc1cc(-c2nc(-c3cc(C)c(OCC(O)CO)c(C)c3)no2)cc(C)n1 (racemic) [Example 8, (RS)-3-{4-[5-(2-Ethyl-6-methyl-pyridin-4-yl)-[1,2,4]oxadiazol-3-yl]-2,6-dimethyl-phenoxy}-propane-1,2-diol], which Lymphocyte counts is on record?
Answer: −62%

Question: How did the Lymphocyte counts turn out when Cc1cc(-c2nc(-c3cc(C)c(OCC(O)CO)c(C)c3)no2)cc(CC(C)C)n1 (racemic) [Example 9, (RS)-3-{4-[5-(2-Isobutyl-6-methyl-pyridin-4-yl)-[1,2,4]oxadiazol-3-yl]-2,6-dimethyl-phenoxy}-propane-1,2-diol] was run?
Answer: −67%

Question: With Cc1cc(-c2nc(-c3cc(C)c(OCC(O)CNC(=O)CO)c(C)c3)no2)cc(OC(C)C)n1 (racemic) [Example 30, 2-Hydroxy-N-((RS)-2-hydroxy-3-{4-[5-(2-isopropoxy-6-methyl-pyridin-4-yl)-[1,2,4]oxadiazol-3-yl]-2,6-dimethyl-phenoxy}-propyl)-acetamide] as the compound, how does the Lymphocyte counts read?
Answer: −73%

Question: For COc1cc(-c2noc(-c3cc(C)nc(CC(C)C)c3)n2)cc(C)c1OCC(O)CNC(=O)CO (racemic) [Example 159, (RS)-2-Hydroxy-N-(2-hydroxy-3-{4-[5-(2-isobutyl-6-methyl-pyridin-4-yl)-[1,2,4]oxadiazol-3-yl]-2-methoxy-6-methyl-phenoxy}-propyl)-acetamide], which Lymphocyte counts is on record?
Answer: −74%
